Experimental data reported in ChEMBL document CHEMBL1201862, “PubChem BioAssay data set” (2004).
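Exposure lasted 48 hours, with cells grown in 96-well plates and compounds tested at five concentrations. Here, GI50 denotes the concentration required for 50% inhibition of growth.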 The source made the active and inactive calls. No stated cut-off is given here; in the data, active = GI50 up to about 1.1 µM and inactive = higher.

Tests used:
Test in all cases: NCI tumour cell line growth inhibition, 48 h
[1] = tested on: 786-0
[2] = tested on: CCRF-CEM
[3] = tested on: EKVX
[4] = tested on: HCC 2998
[5] = tested on: HL-60
[6] = tested on: K562
[7] = tested on: LOX IMVI
[8] = tested on: NCI-H23
[9] = tested on: NCI-H522
[10] = tested on: OVCAR-3
[11] = tested on: OVCAR-4
[12] = tested on: OVCAR-5
[13] = tested on: SF-268
[14] = tested on: SF-295
[15] = tested on: SK-MEL-2
[16] = tested on: SNB-19
[17] = tested on: SW-620
[18] = tested on: MCF7
[19] = tested on: MDA-MB-435
[20] = tested on: DU-145

Measured: GI50

Cc1c(C(=O)CC(=O)C(=O)Nc2ccc(Cl)c(Cl)c2)[n+]([O-])c2ccccc2[n+]1[O-]
inactive: [1] 25.8 µM | [2] 17.2 µM | [3] 12.5 µM | [4] 33 µM | [5] 17.8 µM | [6] 23.8 µM | [7] 21.1 µM | [8] 28.6 µM | [9] 18.9 µM | [10] 2.42 µM | [11] 15.2 µM | [12] 36.4 µM | [13] 29.1 µM | [14] 41.7 µM | [15] 26.9 µM | [16] 27 µM | [17] 25.1 µM

N#C/C(=C\c1c(O)cc(O)cc1O)C(N)=O
inactive: [1] > 100 µM | [2] > 100 µM | [3] > 100 µM | [4] > 100 µM | [5] > 100 µM | [6] > 100 µM | [7] > 100 µM | [8] > 100 µM | [9] > 100 µM | [10] > 100 µM | [11] > 100 µM | [12] > 100 µM | [13] > 100 µM | [14] > 100 µM | [15] > 100 µM | [16] > 100 µM | [17] > 100 µM

Cc1ccc(C(=O)N/N=C(\N=N\c2ccccc2[N+](=O)[O-])c2ccc(N(C)C)cc2)cc1
inactive: [1] > 100 µM | [2] > 100 µM | [3] > 100 µM | [4] 60.5 µM | [5] 84.9 µM | [6] > 100 µM | [7] > 100 µM | [18] > 100 µM | [19] 22.8 µM | [8] > 100 µM | [9] > 100 µM | [10] 92 µM | [11] > 100 µM | [12] > 100 µM | [13] > 100 µM | [14] > 100 µM | [15] > 100 µM | [16] > 100 µM | [17] > 100 µM

Cc1cc(Cl)ccc1NC(=O)/C(=N\NC(C)(C)C)C(C#N)c1nc(-c2ccc([N+](=O)[O-])cc2)cs1 (centres undefined)
inactive: [1] > 100 µM | [2] > 100 µM | [3] > 100 µM | [4] > 100 µM | [5] > 100 µM | [6] > 100 µM | [7] > 100 µM | [8] > 100 µM | [9] > 100 µM | [10] > 100 µM | [11] > 100 µM | [12] > 100 µM | [13] > 100 µM | [14] > 100 µM | [15] > 100 µM | [16] > 100 µM | [17] > 100 µM

CC1(O)C(C)(O)C2(C)O[Te]3(OC12C)OC1(C)C(C)(O)C(C)(O)C1(C)O3 (centres undefined)
inactive: [1] 56.8 µM | [2] 2.41 µM | [3] > 100 µM | [4] 42.7 µM | [5] 10.6 µM | [6] 9.79 µM | [7] 4.41 µM | [8] 14.8 µM | [9] 17.8 µM | [10] 20.2 µM | [11] 24.3 µM | [12] 15.3 µM | [13] > 10 µM | [14] 15.3 µM | [15] 44.6 µM | [16] 28.1 µM | [17] > 10 µM

COc1cc(-c2nc(N)c(C#N)c3c2CCS(=O)(=O)c2ccc(C)cc2-3)cc(OC)c1OC
inactive: [1] 19.1 µM | [2] > 100 µM | [20] > 100 µM | [4] > 100 µM | [5] > 100 µM | [6] > 100 µM | [7] > 100 µM | [19] > 100 µM | [8] 25.4 µM | [9] > 100 µM | [10] > 100 µM | [11] > 100 µM | [12] > 100 µM | [13] > 100 µM | [15] 49.7 µM | [16] 7.05 µM | [17] > 100 µM

O=[N+]([O-])c1ccc(CSc2nncc3[nH]cnc23)cc1
inactive: [1] > 100 µM | [2] > 100 µM | [3] > 100 µM | [4] > 100 µM | [5] > 100 µM | [6] 84.9 µM | [7] > 100 µM | [18] > 100 µM | [19] 93.1 µM | [8] > 100 µM | [9] > 100 µM | [10] > 100 µM | [11] > 100 µM | [12] > 100 µM | [14] 65.2 µM | [15] 83.6 µM | [17] > 100 µM

Oc1ccccc1/C=C/c1csnn1
inactive: [1] > 31.6 µM | [2] > 100 µM | [3] > 100 µM | [4] > 100 µM | [5] 39.4 µM | [6] > 100 µM | [7] > 52.1 µM | [8] > 100 µM | [9] > 100 µM | [10] > 100 µM | [11] > 100 µM | [12] > 100 µM | [13] > 100 µM | [14] > 100 µM | [15] > 100 µM | [16] > 100 µM | [17] > 65.9 µM

O=NN(CCCl)C(=O)N[C@H]1CC[C@H](CC(=O)O)CC1
inactive: [1] 44 µM | [2] 21.1 µM | [3] > 46.5 µM | [4] > 100 µM | [5] 29.7 µM | [6] 60.3 µM | [7] 22.1 µM | [18] > 100 µM | [8] > 89.1 µM | [9] 28 µM | [10] > 100 µM | [11] > 100 µM | [12] > 100 µM | [13] 18.5 µM | [14] 34.8 µM | [15] > 100 µM | [16] 59.3 µM | [17] > 69.2 µM

CCOP(=O)(O)C(C)(C)NC
inactive: [1] > 100 µM | [2] > 100 µM | [20] > 100 µM | [3] > 100 µM | [4] > 100 µM | [5] > 100 µM | [6] > 100 µM | [7] > 100 µM | [19] > 100 µM | [8] > 100 µM | [9] > 100 µM | [10] > 100 µM | [11] > 100 µM | [12] > 100 µM | [13] > 100 µM | [14] > 100 µM | [15] > 100 µM | [16] > 100 µM | [17] > 100 µM

COCNC(=NC#N)NCOC
inactive: [1] > 47.2 µM | [2] > 100 µM | [3] > 100 µM | [4] > 100 µM | [5] > 68.9 µM | [6] > 64.6 µM | [7] > 41.7 µM | [8] > 100 µM | [9] > 100 µM | [10] > 100 µM | [11] > 100 µM | [12] > 100 µM | [13] > 100 µM | [14] > 100 µM | [15] > 100 µM | [16] > 100 µM | [17] > 42.9 µM

O=C1N[C@H](Cc2c[nH]cn2)C(=O)N2CCC[C@@H]12
inactive: [1] > 100 µM | [2] > 100 µM | [3] > 100 µM | [4] > 100 µM | [5] > 100 µM | [6] > 100 µM | [7] > 100 µM | [8] > 100 µM | [9] > 100 µM | [10] > 100 µM | [11] > 100 µM | [12] > 100 µM | [13] > 100 µM | [14] > 100 µM | [15] > 100 µM | [16] > 100 µM | [17] > 100 µM

Cc1cc(Cl)cc2c1NC(=O)C2(O)CC(=O)c1ccc(Br)cc1 (centres undefined)
inactive: [1] 38.2 µM | [2] 18.6 µM | [3] 59.4 µM | [4] > 100 µM | [5] 16.9 µM | [6] 21.6 µM | [7] 38.5 µM | [8] 43.4 µM | [9] 45.7 µM | [10] 63 µM | [11] 14.2 µM | [12] > 100 µM | [13] > 77.8 µM | [14] 46.9 µM | [15] > 100 µM | [16] 71 µM | [17] > 90.6 µM

CN(/N=C/c1ccccn1)C1=NCCCCN1
inactive: [1] > 100 µM | [2] > 100 µM | [3] > 100 µM | [4] > 100 µM | [5] > 100 µM | [6] > 100 µM | [7] > 100 µM | [18] > 100 µM | [19] > 100 µM | [8] > 100 µM | [9] > 100 µM | [10] > 100 µM | [11] > 100 µM | [12] > 100 µM | [13] > 100 µM | [14] > 100 µM | [15] > 100 µM | [16] > 100 µM | [17] > 100 µM

COc1cc(C2=C(C)[C@@H]3CN(CC=C3c3ccc(Cl)cc3)C2)c(S(=O)(=O)O)cc1OC
inactive: [1] > 100 µM | [2] > 100 µM | [20] > 100 µM | [3] > 100 µM | [6] > 100 µM | [7] > 100 µM | [19] > 100 µM | [8] > 100 µM | [9] > 100 µM | [10] > 100 µM | [11] > 100 µM | [12] > 100 µM | [13] > 100 µM | [14] > 100 µM | [15] > 100 µM | [16] > 100 µM | [17] > 100 µM

CC(C(=O)c1ccc(Cl)cc1)C1OC(=O)C(Cl)=C1Cl (centres undefined)
inactive: [1] 21.2 µM | [2] 19 µM | [3] 39.4 µM | [4] 26.6 µM | [5] 19 µM | [6] 25.2 µM | [7] 24.3 µM | [8] 25.2 µM | [9] 18.9 µM | [10] 28.5 µM | [11] 25.7 µM | [12] > 100 µM | [13] 30.3 µM | [14] > 100 µM | [15] 23.2 µM | [16] 85.1 µM | [17] 34.5 µM
